Reference: the METLIN SMRT retention time set (Domingo-Almenara et al. 2019)

Test: gradient 5% acetonitrile 3 min, to 50% in 2 min, to 85% in 15 min, held 3 min, 100 µL/min
Details: column: Zorbax Extend-C18 2.1 x 50 mm; eluents: water / acetonitrile, 0.1% formic acid
Outline: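 The system's dead and dwell volumes were 40 μL and 900 μL, with a Zorbax Extend-C18 column (2.1 × 50 mm, 1.8 μm) run at 100 μL/min in water and acetonitrile containing 0.1% formic acid each. Pure standards were analyzed in mixtures of ~100 molecules by HPLC–quadrupole time-of-flight mass spectrometry in positive and negative ionization mode. Retention time was assigned from computationally picked, manually inspected adduct peaks.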

Compound | RP-LC retention time [s]
N#CCCN(c1ccc(C=O)cc1)S(=O)(=O)c1ccccc1 | 770
O=C(c1cccs1)N1CCN(c2ccc(-c3noc(C4CCC4)n3)cc2)CC1 | 1070
COc1ccc(S(=O)(=O)Nc2ccc(-c3cn4ccc(C)nc4n3)cc2)cc1 | 656
Cc1ccc(F)cc1S(=O)(=O)N1CCC(N2CCN(Cc3ccccc3)C(=O)C2=O)CC1 | 883
N#CCCSc1ccccc1NC(=O)c1ccc(Cl)s1 | 908
CN1C(=O)c2cc(C(=O)NCc3ccc(F)cc3)nn2CC1(C)C(=O)NC1CCCCC1 (stereo not given) | 791
O=S(=O)(c1cccn2cnnc12)N(Cc1ccc(F)cc1)c1ccc(F)c(F)c1 | 887
O=C(NCCCn1ccnc1)C(=O)NCCC1=CCCCC1 | 571
O=C(c1ccncc1)N1CC(N(Cc2ccncc2)CC2CC2)C1 | 519
NCCc1noc(-c2ccccc2)n1 | 580
CCOCCc1c(O)nc(SC)[nH]c1=O | 650
Cc1cc(N2CCN(C(=O)CCCc3c[nH]c4ccccc34)CC2)nc2ccccc12 | 696
Cc1ccc(C(=O)C2=C(O)C(=O)N(c3ncccn3)C2c2cccc(Cl)c2)o1 (stereo not given) | 732
CC(C)NC(=O)N(C1CC1)C1CCOC2(CCN(C(=O)C3CCCC3)CC2)C1 (stereo not given) | 814
O=C(Nc1cccc(OCc2nnc(-c3ccccc3)o2)c1)C1CCCC1 | 943
Fc1cccc(-c2noc(-c3cc(N4CCN(c5ccccn5)CC4)nc4ccccc34)n2)c1 | 962
CC1CN(c2ccc(Br)cc2)c2nc3c(c(=O)n(CCCO)c(=O)n3C)n2C1 (stereo not given) | 833
O=C(Nc1ccc(N2CCN(Cc3ccc(F)cc3)C2=O)nc1)C1CCC1 | 750
COc1cccc(CNC(=O)C2(c3ccc(NC(C)=O)cc3)CCC2)c1 | 737
COc1cccc(OC)c1C(=O)Nc1nc2c(s1)CCc1ccccc1-2 | 1000

Compound | RP-LC retention time [s]
Clc1ccccc1C1Cn2cnc(-c3nc(-c4ccncc4)no3)c2CO1 (stereo not given) | 915
COc1ccccc1NC(=O)c1oc2ccccc2c1NC(=O)Cc1ccc(F)cc1 | 1180
CCOCC(=O)N1CC(c2nc(-c3cccnc3)no2)C2(CCOCC2)C1 (stereo not given) | 622
CCn1ccnc1CC1COc2ccccc2O1 (stereo not given) | 682
Cc1oc(-c2cccc(Cl)c2)nc1Cn1nnc(-c2nc(-c3cccnc3)no2)c1C | 1080
COc1cc(OC)c(NC(=O)Cn2cccc2-c2nc(-c3ccc4c(c3)OCO4)no2)cc1Cl | 1110
COc1ccc(CCNC(=O)c2ccc3[nH]c4c(c3c2)CN(C(C)=O)CC4)cc1OC | 650
O=C(NC1CCCC1)C1CCN(C(=O)N2CCOc3ccc(Cl)cc32)CC1 | 841
CCS(=O)(=O)Nc1cccc(-c2nc3cccnc3s2)c1 | 720
CS(=O)(=O)N(Cc1ccccn1)C1CN(C(=O)C2CCC2)C1 | 603
CCOC(=O)c1sc(NC(=O)C2CCCO2)nc1-c1ccccc1 (stereo not given) | 950
Cc1[nH]c(=O)nc(N/N=C/c2ccc(Cl)cc2)c1C(=O)Nc1ccc(Cl)cc1 | 1020
CCOc1ccc(C(=O)N2C[C@H](c3nc(-c4ccccc4)no3)[C@@H](C)C2)cc1 | 1070
O=C(Nc1ccc(Cl)cc1C(=O)c1ccccc1)c1ccc(N2C(=O)CCC2=O)cc1 | 896
CCCN(CCC)CCc1ccc(O)c(O)c1 | 602
C(=N\n1cnnc1)/c1ccc2c(c1)CCC2 | 858
CCN(CC)S(=O)(=O)c1ccc2c(c1)CC(C(=O)N1CCN(C3CCCCC3)CC1)N2C(C)=O (stereo not given) | 666
CN(Cc1cccs1)C(=O)Nc1ccccc1 | 833
Cc1oc2c(C)c3oc(=O)c(CC(=O)N4CCC(C(N)=O)CC4)c(C)c3cc2c1C | 735
CC(=O)N1CCc2cc(N3CC(C(=O)Nc4ccc(Cl)cc4)CC3=O)ccc21 (stereo not given) | 750

Compound | RP-LC retention time [s]
CC(C)c1ccc(-c2nc(C3CC(=O)N(c4ccc(F)cc4)C3)no2)cc1 (stereo not given) | 1180
CNC(=O)Nc1ccc(C2(C(=O)NCc3ccc(F)cc3Cl)CCC2)cc1 | 784
C=CCc1ccccc1OCC(O)CNC (stereo not given) | 566
CN(C1CCc2nn(CC3CC3)c(=O)n2CC1)S(=O)(=O)c1ccccc1F (stereo not given) | 706
CCCn1cc(CCNS(=O)(=O)c2ccc(F)c(F)c2)c2cccnc21 | 884
CCc1nn(C)c(=O)c2cc(S(=O)(=O)NCc3ccccc3Cl)cn12 | 893
COc1cc2c(cc1OC)-c1cc(=Nc3c(C)cc(C)cc3C)n(C)c(=O)n1CC2 | 765
O=C(NCc1ccc(F)cc1)C1CCCN(S(=O)(=O)c2c[nH]c(C(=O)N3CCCCCC3)c2)C1 (stereo not given) | 838
Cc1c(C2CCN(C(=O)c3ccco3)CC2)noc1N | 620
CC1Oc2ccc(-c3csc(NC(=O)c4ccccc4Cl)n3)cc2N(C)C1=O (stereo not given) | 968
COc1ccc(-c2noc(-c3cccn(CC(=O)Nc4ccc(C#N)cc4)c3=O)n2)cc1OC | 779
Cc1ccc(C)n1-c1c(C(=O)N2CCN(c3ccccn3)CC2)sc2ncccc12 | 690
CCCCC(=O)N(Cc1ccc(-c2ccccc2-c2nn[nH]n2)cc1)[C@H](C(=O)O)C(C)C | 865
CN(C)C(=O)C1CN(C(=O)c2ccc(Br)cc2)CC12CCOCC2 (stereo not given) | 631
Cc1cc(C)c(C(=O)N2CCC(CC(=O)NC3CCCCCC3)CC2)[nH]1 | 800
Cc1nc(-c2cn(C(C)C)c3ncccc23)sc1C(=O)Nc1ccccc1F | 1090
COc1ccc(-c2nnc(COc3ccc(NC(=O)C4CCC4)cc3)o2)cc1 | 826
COc1ccc2cccc(C(=N)c3ccc(C)c4c3CCC4)c2c1 | 747

The next lines start with the values.

RP-LC retention time [s] | Compound
1130 | CCCn1cc(C(=O)Nc2ccc(OC)cc2C)c(=O)c2ccc(C)nc21
1020 | Cc1ccc(C)c(N2CCN(C(=O)Cn3cccc3-c3nnc(C4CC4)o3)CC2)c1
834 | O=C(CN1CCN(C(=O)Nc2ccc(Br)cc2)CC1=O)NCCC1=CCCCC1
770 | Cc1ccc(C)c(NC(=O)Cn2c(N3CCOCC3)nc(C)cc2=O)c1
875 | Cc1ccc(CN2CCCn3nc(C(=O)NCc4ccc(C)o4)cc3C2=O)cc1
778 | Cc1cccc(N2CCN(CCNC(=O)c3cc4sccc4n3C)CC2)c1C
834 | CC(C)C(=O)N1CCN(c2ccc(=O)n(-c3ccc(C(C)C)cc3)n2)CC1
1000 | CCOC(=O)c1ccccc1NC(=O)N1CCSc2nc(C)cc(C)c21
916 | Cc1ccc(C)c(Cn2nc(-c3nc(C)no3)ccc2=O)c1
746 | Cc1cc(F)ccc1NC(=O)Cn1nc2cc(-c3ccccn3)nc(C)n2c1=O
818 | CCCC(=O)Nc1ccc(-c2nc(Cn3nc(C)cc3C)c(C)o2)cc1
808 | COc1ccccc1NC(=O)C1CCCN1S(=O)(=O)c1cc2c(cc1C)NC(=O)CO2 (stereo not given)
578 | COc1ccc(NC(=O)CN2CCC(C(=O)NCc3ccc(F)cc3F)CC2)c(OC)c1
585 | CC(C)NC(=O)Cn1c(C2CCCO2)nc2ccccc21 (stereo not given)
618 | CCC(=O)Nc1ccc2c(c1)CCC(=O)N2CCOC
953 | CCCCC(=O)Nc1nc(-c2ccc3c(c2)N(C)C(=O)C(C)O3)cs1 (stereo not given)

RP-LC retention time [s] | Compound
753 | O=C(Cn1nc(C(=O)N2CCCC2)c2ccccc21)NCc1cccs1
727 | COc1ccc(C2(C)NC(=O)N(CC(=O)Nc3ccc([N+](=O)[O-])cc3)C2=O)cc1 (stereo not given)
663 | COc1ccc(OC)c(CNC(=O)C2CCN(S(=O)(=O)c3cn(C)cn3)CC2)c1
618 | Cc1ccc2cc(CCC(=O)NC(C)c3cn(C)nc3C)c(=O)[nH]c2c1 (stereo not given)
597 | Cc1nn(CC(=O)NCCCN2CCc3ccccc3C2)c(=O)c2noc(C)c12
859 | COc1cccc(-n2c(N3CCCC(C(=O)NCc4ccccc4)C3)nc3ccsc3c2=O)c1 (stereo not given)
956 | Cc1ccc(-c2cn3c(CC(=O)N4CCCc5ccccc54)csc3n2)cc1C
648 | Cc1nc(C)c(C(=O)N2CCC(c3noc(-c4ccccn4)n3)C2)s1 (stereo not given)
750 | CCN1C(=O)C2(CCN(C(=O)c3cc(C)n(C)n3)CC2)c2ccccc21
727 | COc1cccc(CNC(=O)Cn2c(C)nc3onc(C)c3c2=O)c1
624 | CCn1c(C(=O)NCCN2CCCC2)c(N2CCCC2=O)c2cc(OC)ccc21
728 | Cc1cc(F)ccc1NC(=O)c1cn2c(n1)CSCC2
729 | Cc1ccc(NC(=O)C2CCN(S(=O)(=O)c3c(C)[nH]c(C)c3C(=O)N3CCCC3)CC2)c(C)c1
882 | CCc1ccccc1NC(=O)C(C)n1cnc2nc(N3CCCCC3)ncc2c1=O (stereo not given)
1210 | Cc1ccc(-c2nnc(-c3ccccc3)o2)cc1S(=O)(=O)N1CCC(C)CC1
707 | Cc1[nH]nc(-c2ccc(S(=O)(=O)N3CCOCC3)o2)c1C
